Experimental findings from patent US5356921A, “Imidazolylphenol compounds, pharmaceutical compositions containing them, and processes for preparing such compounds and compositions” (Gruenenthal GmbH, priority 1992, dated 1994) are described below.

Assay [1] deals with T1, 5-lipoxygenase (Rattus norvegicus, UniProt P12527).
T1 construct: endogenous in cells; host or cells: RBL-1 cells (rat basophilic leukemia), intact
T1 sequence (P12527 1-673): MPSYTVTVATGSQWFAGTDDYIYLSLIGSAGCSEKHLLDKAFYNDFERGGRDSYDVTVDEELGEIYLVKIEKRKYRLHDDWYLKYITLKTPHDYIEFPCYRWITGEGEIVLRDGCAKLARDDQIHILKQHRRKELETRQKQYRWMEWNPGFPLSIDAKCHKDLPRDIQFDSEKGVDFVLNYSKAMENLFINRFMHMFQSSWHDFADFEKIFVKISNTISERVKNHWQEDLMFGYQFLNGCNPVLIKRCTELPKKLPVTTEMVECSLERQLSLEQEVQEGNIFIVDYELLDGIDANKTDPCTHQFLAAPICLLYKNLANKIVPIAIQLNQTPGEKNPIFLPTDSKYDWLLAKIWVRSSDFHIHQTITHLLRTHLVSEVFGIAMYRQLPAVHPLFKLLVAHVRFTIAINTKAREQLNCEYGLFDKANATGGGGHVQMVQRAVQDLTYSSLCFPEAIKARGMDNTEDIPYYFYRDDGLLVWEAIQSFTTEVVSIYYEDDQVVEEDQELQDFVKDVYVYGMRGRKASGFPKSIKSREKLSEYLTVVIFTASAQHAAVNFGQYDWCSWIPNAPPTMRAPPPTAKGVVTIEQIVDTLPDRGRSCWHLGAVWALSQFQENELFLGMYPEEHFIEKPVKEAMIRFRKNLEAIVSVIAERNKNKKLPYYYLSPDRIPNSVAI
Nature of the assay: Inhibition of cell-free 5-lipoxygenase from RBL-1-cells. It counts as biochemical. The settings on record: 10,000×g supernatant of RBL cells; polarographic; arachidonic acid 75 μM. On the procedure: Cell-free 5-lipoxygenase was polarographically measured from 10,000×gsupernatant of homogenized rat basophilic leucemia cells [M. Haurand and L. Flohe in Biol. Chem. Hoppe-Seyler 369, 133-142 (1988)]. After preincubation of the 10,000×g supernatant with arachidonic acid (75 μM), ATP (adenosine triphosphate; 4 μM), reduced glutathione (4 mM), and either a compound according to the invention (0.1 to 100 μM) or a solvent (ethanol and/or dimethyl sulfoxide) at 35° C. for 5 minutes, the lipoxygenase reaction was initiated by addition of calcium chloride (3 mM) and recorded simultaneously.
The activity of 5-lipoxygenase was determined from the difference of the pO2 -decrease before and after addition of calcium chloride. The evaluation included the initial rate of the reaction after the lag-phase as well as the duration of the lag-phase. In a concentration range of from 5 to 10 μM the test substances induced lag-phases of 15 seconds.

The subject of assay [2] is 5-lipoxygenase. Nature of the assay: 5-lipoxygenase inhibition in rat blood after oral administration (ex vivo iLTB4-formation). The settings on record: male Wistar rats, 21.5 mg/kg oral, one hour after administration, A 23 187 15 μg/ml. On the procedure: The bioavailability of the compounds of formula I as 5-lipoxygenase inhibitors was characterized by means of an ex vivo biochemical assessment method described by Tateson et al. in Brit. J. Pharmacol. 94, 528 (1988). A compound of formula I was orally administered to male rats (Wistar strain) in a dose of 21.5 mg/kg. One hour after administration the rats after lethal CO2 -narcosis were bled by heart puncture with added heparin as an anticoagulant. Aliquots of the whole blood were incubated at 37° C. for 30 minutes in a water bath with calcium ionophore A 23 187 at an end concentration of 15 μg/ml. At the end of the incubation the samples were centrifuged, and the concentration of immunoreactive LTB4 (iLTB4) in aliquots of […] percent inhibition of ex vivo iLTB4 -formation in whole blood of rats treated with a compound according to the invention, rats orally treated with an appropriate vehicle solution were included in all experiments, and aliquots of their blood were run in parallel and were processed in the same way as described. The average iLTB4 -content of the plasma of the vehicle treated rats served as the 100% value. The activity in percent of the ex vivo iLTB4 -formation after oral administration of a compound according to the invention was calculated by dividing the average value of the iLTB4 -content in ng iLTB4 /ml of the group treated with a compound according to the invention by the average value of the iLTB4 -contents in ng iLTB4 /ml of the vehicle treated group and subsequent multiplication by the factor 100. The respective inhibition in percent was calculated by subtracting the activity in percent from 100.

In assay [3] the target is T2, thromboxane synthase (Homo sapiens, UniProt P24557).
T2 construct: human thrombocytes were isolated from platelet-rich plasma; endogenous in cells; host or cells: human thrombocytes (platelets), intact
T2 sequence (P24557 1-533): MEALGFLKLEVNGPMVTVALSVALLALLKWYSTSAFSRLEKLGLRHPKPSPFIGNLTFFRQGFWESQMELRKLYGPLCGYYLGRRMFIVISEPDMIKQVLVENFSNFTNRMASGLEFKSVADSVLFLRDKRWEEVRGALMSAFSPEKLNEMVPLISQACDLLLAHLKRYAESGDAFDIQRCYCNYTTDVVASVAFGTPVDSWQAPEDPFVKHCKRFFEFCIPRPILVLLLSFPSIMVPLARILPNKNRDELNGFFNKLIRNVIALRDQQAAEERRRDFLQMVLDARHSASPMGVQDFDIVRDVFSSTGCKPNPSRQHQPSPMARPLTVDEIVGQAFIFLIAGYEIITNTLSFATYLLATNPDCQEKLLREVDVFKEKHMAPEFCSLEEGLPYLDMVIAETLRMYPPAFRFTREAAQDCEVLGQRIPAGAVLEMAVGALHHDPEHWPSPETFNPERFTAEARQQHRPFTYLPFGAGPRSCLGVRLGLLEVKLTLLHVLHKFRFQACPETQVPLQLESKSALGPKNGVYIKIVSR
As to the kind of experiment: Inhibition of thromboxane synthase (human thrombocytes). The settings on record: for IC50: human thrombocytes, arachidonic acid 3.5 μM, read-out: IC50-Value, inhibition of thromboxane synthase (TXB2 formation); for inhibitory action on thromboxane synthase: in words. The format is cell-based. As to the method:
After addition of prostacyclin, human thrombocytes were isolated from platelet-rich plasma and suspended in Tyrode-Hepes buffer of pH 7.4 at 2×10^8 cells/ml. One ml aliquots of cells were incubated either with a compound according to the invention (0.1 to 100 μM) or a solvent (ethanol and/or dimethyl sulfoxide) at 37° C. for 3 minutes and thereafter with radioactively labelled arachidonic acid (3.5 μM) for 5 minutes. The reaction was stopped and the metabolites of arachidonic acid were extracted by adding methanol, chloroform and formic acid. After evaporation of the chloroform-containing layer to dryness under nitrogen, the residue obtained was resuspended in 50 μl chloroform and analyzed by thin layer chromatography. The distribution of the radioactivity of the different metabolites of arachidonic acid was measured using a TLC linear analyzer.

As usually defined, the IC50 is the concentration that gives 50% inhibition.

Molecule `CC(=O)N(O)Cc1ccc(Oc2ccc(-n3ccnc3)cc2)cc1` [Example 3, N-hydroxy-N-[4-[4-(1H-imidazol-1-yl)phenoxy]phenylmethyl]acetamide] had a 50% inhibitory concentration (IC50) in assay [1] of 3000 nM. Besides, the “Inhibition of ex vivo iLTB4-formation in whole blood” value in assay [2] is 91%. In assay [3], the IC50 turned out to be 2900 nM and the “inhibitory action on thromboxane synthase” value is “same inhibitory potency as the hydrochloride of the imidazolylethoxybenzoic acid UK 37 248”.
In turn, `NC(=O)N(O)Cc1ccc(Oc2ccc(-n3ccnc3)cc2)cc1` [Example 1, N-hydroxy-N-[4-[4-(1H-imidazol-1-yl)phenoxy]phenylmethyl]urea] registered a 50% inhibitory concentration (IC50) in assay [1] of 7000 nM. Moreover, the “Inhibition of ex vivo iLTB4-formation in whole blood” value in assay [2] (21.5 mg/kg) is 89%. In addition, in assay [3], the half-maximal inhibitory concentration (IC50) stood at 2800 nM and the “inhibitory action on thromboxane synthase” value was “same inhibitory potency as the hydrochloride of the imidazolylethoxybenzoic acid UK 37 248”.
